Source: patent US4920121A
Like-named read-outs stand apart in the source and are kept apart here.

Legend:
[1] = system: male, Charles River mice, CF-1; experiment: rotorod motor coordination (RMC) test
Protocol: In order to differentiate between specific antiagressive effects and an inhibition of fighting due to debilitation, rotorod motor coordination (RMC) tests were conducted according to an adaptation of the method of Dunham et al., J. Am. Pharm. Assc. […] The amount of time spent on the rod (maximum of 60 seconds) was recorded and compared with the vehicle treated control animals. […] In comparison, the minimum effective dose (mg/kg i.p.) of buspirone in the isolation induced aggression study was 10.0 mg/kg and greater than 60.0 mg/kg in producing ataxia as evaluated by the rotorod motor coordination study.

[2] = target: T1, post synaptic 5-HT1A receptor (Rattus norvegicus, UniProt P19327); details: for in vivo postsynaptic 5-HT1A activity profile in serotonin syndrome tests: rats, i.p.
T1 sequence (P19327 1-422): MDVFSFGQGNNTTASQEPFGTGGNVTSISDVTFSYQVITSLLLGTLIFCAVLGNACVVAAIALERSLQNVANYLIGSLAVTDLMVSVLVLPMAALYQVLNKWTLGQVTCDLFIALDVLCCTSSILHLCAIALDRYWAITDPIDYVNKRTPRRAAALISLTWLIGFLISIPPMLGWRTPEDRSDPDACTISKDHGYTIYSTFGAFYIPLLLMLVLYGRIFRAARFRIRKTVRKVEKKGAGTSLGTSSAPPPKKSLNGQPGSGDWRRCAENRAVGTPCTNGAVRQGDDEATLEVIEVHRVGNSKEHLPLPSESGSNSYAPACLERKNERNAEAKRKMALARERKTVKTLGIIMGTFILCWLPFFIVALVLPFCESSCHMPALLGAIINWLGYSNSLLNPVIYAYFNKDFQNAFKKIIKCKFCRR
Protocol: (§1) Serotonin syndrome tests were conducted according to the method of Smith et al., Pharmacol. Biochem. and Behav., 24 1513 (1986).
(§2) Male Sprague-Dawley CD rats (Charles River) weighing 200-300 g were housed 6/cage with food and water available ad libitum. Animals were allowed to acclimate to the animal colony for at least 1 week prior to testing. Rats were placed individually into plexiglas® observation cages with a layer of bedding covering the bottom. […] During the 15 minute pretreatment, subjects were scored for the presence of the 5-HT syndrome (agonist activity). After the 8-OH-DPAT injection, all subjects were scored for an additional 15 minutes to identify antagonist activity. Scoring the 5-HT syndrome consisted of rating the following behaviors: (1) forepaw treading, (2) head-weaving, (3) tremor, (4) hindlimb abduction, (5) flattened body posture, and (6 ) Straub tail on a 4-point ranked intensity scale with a maximum score of 18. Results were expressed as mean total score (+/-SEM) for induction of syndrome and for antagonism of syndrome.

[3] = target: T1, post synaptic 5-HT1A receptor; experiment: in vivo; details: ip
Protocol: as §1, §2

[4] = system: male Charles River, CF-1 mice; experiment: isolation-induced aggression test; details: for total fighting time (TFT): 60 minutes before testing, 3 minute test, vehicle controls 15.7 seconds
Protocol: The isolation-induced aggression test was conducted with male mice in an adaptation of the method of DaVanzo et al., Psychopharmacology, (Berlin) 9 210 (1966) whereby male Charles River, CF-1 mice, 16-20 g in weight were individually housed for a period of three weeks and then trained to attack an intruder mouse which had been group housed (10/cage). […] The total fighting time (TFT) in seconds was recorded during a 3 minute test period upon introduction of the intruder mouse into the cage of the aggressive mouse.

[5] = system: male CD rats (Charles River); experiment: discrete trial conditioned avoidance responding (CAR) test; type: in vivo; details: Rattus norvegicus, ip, thirty minutes before the test, instant test procedure, read-out: ED50 (reduction in avoidance responding)
Protocol: The conditioned avoidance responding (CAR) test was conducted in male CD rats (Charles River) maintained at approximately 400-450 g body weight. Rats trained previously were placed in Plexiglas® experimental chambers equipped with a response lever, house light and sonalert. The steel grid chamber floor is wired for presentation of an electric shock. Each trial consists of a fifteen second warning tone conditioned stimulus, continuing for an additional fifteen seconds accompanied by electric shock (unconditioned stimulus). The rat can terminate a trial at any point by depressing the response lever. A response during the initial fifteen second warning tone ends the trial before shock delivery and is considered an avoidance response. A response occurring during shock delivery is an escape response. […] The ED50 of the test compound is calculated from the percentage reduction in avoidance responding and represents that dose at which only half the responses are made.

5-HT1A receptors = details: Martin et al., European J. of Pharmacol. 156 223 (1988); cited from earlier work
[6] = system: male CD rats (Charles River); details: i.p., reported by Martin et al. 1988; cited from earlier work

| Structure (SMILES) | minimum effective dose in producing ataxia (rotorod motor coordination) ([1]; mouse, in vivo, ip) | in vivo postsynaptic 5-HT1A activity profile in serotonin syndrome tests [2] | ED50 ([3]; read-out: agonist ED50) | ED50 ([3]; read-out: antagonist ED50) | minimal effective dose ([4]; Mus musculus, ip, 1 h, read-out: minimum effective dose in the isolation induced aggression study) | dosage at which mice became debilitated (rotorod) ([1]; intraperitoneally 60 minutes before rotorod) | debilitating dose relative to dose that antagonized aggressive activity ([1]; rotorod vs isolation-induced aggression, mice i.p.) | ED50 [5] | antagonism of serotonin syndrome induced by 8-OH-DPAT ([2]; 33 mg/kg i.p., 15 minutes prior to 5.6 mg/kg i.p. 8-OH-DPAT) | induction of 5-HT syndrome (agonist activity) ([2]; 10 and 30 mg/kg i.p., scored during 15 minute pretreatment) | Ki (5-HT1A receptors) | ED50 (reduction in avoidance responding) [6] | total fighting time (TFT) ([4]; 0.5 mg/kg i.p.) | total fighting time (TFT) ([4]; 1.0 mg/kg i.p.) | total fighting time (TFT) ([4]; 3.0 mg/kg i.p.) |
| --- | --- | --- | --- | --- | --- | --- | --- | --- | --- | --- | --- | --- | --- | --- | --- |
| O=C1CC2(CCCC2)CC(=O)N1CCCCN1CCN(c2ncccn2)CC1 [buspirone, reference compound] | greater than 60.0 mg/kg | partial agonist profile | 7 mg/kg | 4 mg/kg | 10 mg/kg | – | – | – | – | – | – | – | – | – | – |
| COc1ccccc1N1CCNCC1 | – | weak partial agonist activity | – | – | – | ≥ 30.0 mg/kg | at least ten times the dose that antagonized aggressive activity | 10.6 mg/kg | antagonized the serotonin syndrome | displayed agonist activity | 9.5 nM | 5.6 mg/kg | 5.1 s | 0.7 s | 0.1 s |
